Reference: US20250188110A1, “SPECIFIC SMALL MOLECULE INHIBITORS THAT BLOCK KMT9 METHYLTRANSFERASE ACTIVITY AND FUNCTION” (ALBERT-LUDWIGS-UNIVERSITÄT FREIBURG, priority 2021, published 2025)
Read-outs that look alike come from different tables or passages of the source. One block for each compound: values may come before it.

Experiments:
KMT9 [1] = biological target: T1, KMT9 (Homo sapiens, UniProt Q9Y5N5); test: KMT9 thermal shift assay (SyproOrange); format: binding
T1 sequence (Q9Y5N5 1-214): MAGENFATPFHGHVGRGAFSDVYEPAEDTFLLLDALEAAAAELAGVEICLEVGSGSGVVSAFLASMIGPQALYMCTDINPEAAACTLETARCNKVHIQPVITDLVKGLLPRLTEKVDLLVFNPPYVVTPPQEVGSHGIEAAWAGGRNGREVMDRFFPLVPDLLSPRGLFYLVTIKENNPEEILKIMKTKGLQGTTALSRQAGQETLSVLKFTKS
T1 sequence (Q9UI30 1-120 isoform Q9UI30-2 partner): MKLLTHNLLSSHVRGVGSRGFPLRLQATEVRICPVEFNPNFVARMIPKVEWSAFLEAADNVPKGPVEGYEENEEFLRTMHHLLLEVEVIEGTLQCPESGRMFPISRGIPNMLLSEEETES
Procedure, shortened: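 Recombinant KMT9 was incubated with compound and SyproOrange at 25° C in 50 mM BTP pH 8.5, 1 mM MgCl2, 1 mM DTT. It was then heated from 20° C to 95° C at 1° C per 15 s with fluorescence read each step. Tm came from a Boltzmann sigmoidal fit; ΔTm relative to DMSO control, binned in 5 K ranges.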

KMT9 [2] = biological target: T1, KMT9; test: Microscale thermophoresis (MST) KMT9 binding
Procedure, shortened: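 His-tagged KMT9 (20 nM), RED-Tris-NTA labelled, titrated with varying compound concentrations in 25 mM HEPES pH 7.5, 100 mM NaCl, 1 mM DTT, 0.05% Tween. MST at 40% MST and 100% LED power, Nano-RED excitation; Kd binned A ≤10 nM, B 10–100, C 100–1000, D >1000 nM.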

KMT9 [3] = biological target: T1, KMT9; test: KMT9 methyltransferase inhibition assay, MTaseGlo luminescence (from entry 155); format: biochemical; conditions: 100 nM KMT9, 5 μM ETF1, 1 μM SAM
Protocol: For the compounds from entry 155 on in Table 1, the following procedure was used to determine IC50 values: The assay was carried out in white, opaque 384-well OptiPlates (PerkinElmer). For IC50 determination, a 2.5x substrate mix (final assay concentrations: 5 μM ETF1, 1 μM SAM and 1x MTaseGlo Reagent), a 2.5x KMT9 solution (final assay concentration 100 nM) and a 5x inhibitor stock 1:1 dilution series (concentration according to the desired range; dilution series was prepared in assay buffer containing 10% DMSO to obtain a final DMSO concentration of 2% in the assay) were prepared. 2 μL of 5x inhibitor stock and 4 μL of 2.5x KMT9 were pipetted, the plate was spun down at 700 rpm for 1 min using a Hettich UNIVERSAL 320 centrifuge and incubated at room temperature (around 25° C.) for 15 min. The reaction was initiated by adding 4 μL of 2.5x substrate mix, the plate was spun down as described before and incubated at 30° C. for 2 h. Afterwards, 10 μL of 2× MTaseGlo Detection solution was added, the plate was centrifuged as described above and incubated for 60 min at room temperature. Luminescence was measured using a PerkinElmer EnVision 2102 Multilabel Reader. Calculation of inhibition and data fitting was carried out as for entries 1-154. described above.
For the results of the methyltransferase inhibition assay shown as “Inhibition” in Table 1, “I” represents an IC50 less than 0.1 μM, “II” represents an IC50 equal or higher than 0.1 μM and less than 1 μM, “III” represents an IC50 equal or higher than 1 µM and less than 10 µM and “IV” represents an IC50 equal or higher than 10 µM

[4] = ΔTm class, 500 uM compound, 2 μM KMT9, read-out: Thermal shift
[5] = His-tag labelled KMT9 20 nM, Kd class, read-out: MST
[6] = IC50 class, MTaseGlo procedure (entries from 155 on), read-out: Inhibition
[7] = ΔTm, 500 µM compound, 2 μM KMT9, 5X SO, read-out: Thermal shift
[8] = microscale thermophoresis, His-tag labelled KMT9 (20 nM), read-out: MST
[9] = from entry 155: MTaseGlo assay, read-out: Inhibition
[10] = 500 µM compound, 2 μM KMT9, read-out: Thermal shift (ΔTm)
[11] = His-tag labelled KMT9 20 nM, read-out: MST (Kd)
[12] = MTaseGlo procedure (entries from 155), read-out: Inhibition (IC50)

Compound: CN(CCCNCCc1ccccc1)C[C@H]1C[C@@H](n2cc(-c3cc(Cc4ccccc4)cs3)c3cncnc32)[C@H](O)[C@@H]1O [Compound 620, (1R,2S,3R,5R)-3-[5-(4-Benzylthiophen-2-yl)pyrrolo[2,3-d]pyrimidin-7-yl]-5-{[methyl({3-[(2-phenylethyl)amino]propyl})amino]methyl}cyclopentane-1,2-diol]
ΔTm at 500 µM (KMT9 [1]; [4]): 10 to 15 °C
Kd (KMT9 [2]; [5]): 0.1 to 1 µM
IC50 (KMT9 [3]; [6]): 1 to 10 µM

Compound: CN1CCCC([C@H]2C[C@@H](n3cc(-c4nc(Cc5ccccc5)cs4)c4cnc(Cl)nc43)[C@H](O)[C@@H]2O)C1 (stereo partly drawn) [Compound 515, (1R,2S,3R)-3-[5-(4-benzyl-1,3-thiazol-2-yl)-2-chloropyrrolo[2,3-d]pyrimidin-7-yl]-5-(1-methylpiperidin-3-yl)cyclopentane-1,2-diol]
ΔTm at 500 µM (KMT9 [1]; [4]): 15 to 20 °C
Kd (KMT9 [2]; [5]): 0.1 to 1 µM
IC50 (KMT9 [3]; [6]): 1 to 10 µM

Compound: Nc1ncnc2c1ccn2[C@@H]1C[C@H]([C@H]2CCCN2)[C@@H](O)[C@H]1O [Compound 398, (1R,2S,3R,5R)-3-(4-amino-7H-pyrrolo[2,3-d]pyrimidin-7-yl)-5-((R)-pyrrolidin-2-yl) cyclopentane-1,2-diol]
ΔTm at 500 µM (KMT9 [1]; [10]): ≤ 10 °C
Kd (KMT9 [2]; [11]): > 1 µM
IC50 (KMT9 [3]; [12]): > 10 µM

Compound: O[C@@H]1[C@@H](CNCCCNCCc2ccccc2)C[C@@H](n2cc3c4c(ncnc42)NCCC3)[C@@H]1O [Compound 628, (1S,2R,3R,5R)-3-(((3-(Phenethylamino)propyl)amino)methyl)-5-(6,7,8,9-tetrahydro-2H-2,3,5,6-tetraazabenzo[cd]azulen-2-yl)cyclopentane-1,2-diol]
ΔTm at 500 µM (KMT9 [1]; [7]): 10 to 15 °C
Kd (KMT9 [2]; [8]): 0.1 to 1 µM
IC50 (KMT9 [3]; [9]): 1 to 10 µM

Compound: Nc1ncnc2c1c(-c1nc(Cc3ccccc3)cs1)cn2[C@@H]1C[C@H]([C@H]2CCCNC2)[C@@H](O)[C@H]1O (single isomer, unassigned) [Compound 593S]
ΔTm at 500 µM (KMT9 [1]; [7]): 10 to 15 °C
Kd (KMT9 [2]; [8]): 0.1 to 1 µM
IC50 (KMT9 [3]; [9]): 1 to 10 µM

Compound: CN1CCC([C@H]2C[C@@H](n3cc(-c4nc(Cc5ccccc5)cs4)c4cnc(Cl)nc43)[C@H](O)[C@@H]2O)CC1 [Compound 496, (1R,2S,3R,5R)-3-(5-(4-benzylthiazol-2-yl)-2-chloro-7H-pyrrolo[2,3-d]pyrimidin-7-yl)-5-(1-methylpiperidin-4-yl)cyclopentane-1,2-diol]
ΔTm at 500 µM (KMT9 [1]; [4]): 15 to 20 °C
Kd (KMT9 [2]; [5]): 0.01 to 0.1 µM
IC50 (KMT9 [3]; [6]): 1 to 10 µM

Compound: CN(CCCNCCc1ccc(F)cc1)C[C@H]1C[C@@H](n2cc(-c3ccn(Cc4ccccc4)n3)c3cnc(Cl)nc32)[C@H](O)[C@@H]1O [Compound 642, (1R,2S,3R,5R)-3-[5-(1-Benzylpyrazol-3-yl)-2-chloropyrrolo[2,3-d]pyrimidin-7-yl]-5-{[(3-{[2-(4-fluorophenyl)ethyl]amino}propyl)(methyl)amino]methyl}cyclopentane-1,2-diol]
ΔTm at 500 µM (KMT9 [1]; [4]): 15 to 20 °C
Kd (KMT9 [2]; [5]): 0.01 to 0.1 µM
IC50 (KMT9 [3]; [6]): 1 to 10 µM

Compound: Nc1nc(Cl)nc2c1c(-c1nc(Cc3ccccc3)cs1)cn2[C@@H]1C[C@H](C2CCN(CC(F)F)CC2)[C@@H](O)[C@H]1O [Compound 511, (1R,2S,3R,5R)-3-[4-amino-5-(4-benzyl-1,3-thiazol-2-yl)-2-chloropyrrolo[2,3-d]pyrimidin-7-yl]-5-[1-(2,2-difluoroethyl)piperidin-4-yl]cyclopentane-1,2-diol]
ΔTm at 500 µM (KMT9 [1]; [10]): 10 to 15 °C
Kd (KMT9 [2]; [11]): 0.1 to 1 µM
IC50 (KMT9 [3]; [12]): 1 to 10 µM

Compound: COc1csc(-c2cn([C@@H]3C[C@H](CNCCCNCCc4ccccc4)[C@@H](O)[C@H]3O)c3ncncc23)n1 [Compound 615, (1R,2S,3R,5R)-3-(5-(4-Methoxythiazol-2-yl)-7H-pyrrolo[2,3-d]pyrimidin-7-yl)-5-(((3-(phenethylamino)propyl)amino)methyl)cyclopentane-1,2-diol]
ΔTm at 500 µM (KMT9 [1]; [4]): ≤ 10 °C
Kd (KMT9 [2]; [5]): > 1 µM
IC50 (KMT9 [3]; [6]): > 10 µM

Continued, values first:

ΔTm at 500 µM (KMT9 [1]; [4]): ≤ 10 °C
Kd (KMT9 [2]; [5]): > 1 µM
IC50 (KMT9 [3]; [6]): > 10 µM
Compound: Nc1ncnc2c1ccn2[C@@H]1C[C@H](c2cccc(O)c2)[C@@H](O)[C@H]1O [Compound 404, (1R,2S,3R,5R)-3-(4-amino-7H-pyrrolo[2,3-d]pyrimidin-7-yl)-5-(3-hydroxyphenyl) cyclopentane-1,2-diol]

ΔTm at 500 µM (KMT9 [1]; [7]): ≤ 10 °C
Kd (KMT9 [2]; [8]): > 1 µM
IC50 (KMT9 [3]; [9]): > 10 µM
Compound: Nc1ncnc2c1ccn2[C@@H]1C[C@H](c2ccc3ccccc3c2)[C@@H](O)[C@H]1O [Compound 387, (1R,2S,3R,5R)-3-(4-amino-7H-pyrrolo[2,3-d]pyrimidin-7-yl)-5-(naphthalen-2-yl) cyclopentane-1,2-diol]

ΔTm at 500 µM (KMT9 [1]; [4]): > 20 °C
Kd (KMT9 [2]; [5]): ≤ 0.01 µM
IC50 (KMT9 [3]; [6]): 0.1 to 1 µM
Compound: Nc1nc(Cl)nc2c1c(-c1ccccc1)cn2[C@@H]1C[C@H](CNCCCNCCc2ccc(F)cc2)[C@@H](O)[C@H]1O [Compound 566, (1R,2S,3R,5R)-3-(4-amino-2-chloro-5-phenyl-7/pyrrolo[2,3-d]pyrimidin-7-yl)-5-(( (3-((4-fluorophenethyl)amino)propyl)amino)methyl)cyclopentane-1,2-diol]

ΔTm at 500 µM (KMT9 [1]; [10]): 15 to 20 °C
Kd (KMT9 [2]; [11]): ≤ 0.01 µM
IC50 (KMT9 [3]; [12]): < 0.1 µM
Compound: NCc1cccc([C@H]2C[C@@H](n3ccc4c(N)nc(Cl)nc43)[C@H](O)[C@@H]2O)c1 [Compound 660, (1R,2S,3R,5R)-3-{4-Amino-2-chloropyrrolo[2,3-d]pyrimidin-7-yl}-5-[3-(aminomethyl)phenyl]cyclopentane-1,2-diol]

ΔTm at 500 µM (KMT9 [1]; [10]): 15 to 20 °C
Kd (KMT9 [2]; [11]): ≤ 0.01 µM
IC50 (KMT9 [3]; [12]): 0.1 to 1 µM
Compound: CN1CCC[C@@H]([C@H]2C[C@@H](n3cc(-c4nc(Cc5ccccc5)cs4)c4c(N)nc(Cl)nc43)[C@H](O)[C@@H]2O)C1 [Compound 597S, (1R,2S,3R,5R)-3-(4-amino-5-(4-benzylthiazol-2-yl)-2-chloro-7H-pyrrolo[2,3-d]pyrimidin-7-yl)-5-((S)-1-methylpiperidin-3-yl)cyclopentane-1,2-diol]

ΔTm at 500 µM (KMT9 [1]; [7]): > 20 °C
Kd (KMT9 [2]; [8]): ≤ 0.01 µM
IC50 (KMT9 [3]; [9]): 0.1 to 1 µM
Compound: CN1CCC([C@H]2C[C@@H](n3cc(-c4ccn(Cc5ccccc5)n4)c4c(N)nc(Cl)nc43)[C@H](O)[C@@H]2O)CC1 [Compound 502, (1R,2S,3R,5R)-3-(4-amino-5-(1-benzyl-1H-pyrazol-3-yl)-2-chloro-7H-pyrrolo[2,3-d]pyrimidin-7-yl)-5-(1-methylpiperidin-4-yl)cyclopentane-1,2-diol]

ΔTm at 500 µM (KMT9 [1]; [7]): ≤ 10 °C
Kd (KMT9 [2]; [8]): > 1 µM
IC50 (KMT9 [3]; [9]): > 10 µM
Compound: Nc1ncnc2c1ccn2[C@@H]1C[C@H](c2cc(Cl)cc(Cl)c2)[C@@H](O)[C@H]1O [Compound 384, (1R,2S,3R,5R)-3-(4-amino-7H-pyrrolo[2,3-a]pyrimidin-7-yl)-5-(3,5-dichlorophenyl) cyclopentane-1,2-diol]

ΔTm at 500 µM (KMT9 [1]; [10]): 10 to 15 °C
Kd (KMT9 [2]; [11]): 0.01 to 0.1 µM
IC50 (KMT9 [3]; [12]): 0.1 to 1 µM
Compound: COc1cc([C@H]2C[C@@H](n3cc(Br)c4c(N)nc(Cl)nc43)[C@H](O)[C@@H]2O)ccn1 [Compound 680, (1R,2S,3R,5R)-3-(4-amino-5-bromo-2-chloro-7H-pyrrolo[2,3-d]pyrimidin-7-yl)-5-(2-methoxypyridin-4-yl)cyclopentane-1,2-diol]

ΔTm at 500 µM (KMT9 [1]; [4]): 10 to 15 °C
Kd (KMT9 [2]; [5]): 0.1 to 1 µM
IC50 (KMT9 [3]; [6]): 1 to 10 µM
Compound: CN1CCC=C([C@H]2C[C@@H](n3cc(-c4nc(Cc5ccccc5)cs4)c4cnc(Cl)nc43)[C@H](O)[C@@H]2O)C1 [Compound 585, (1R,2S,3R,5R)-3-[5-(4-Benzyl-1,3-thiazol-2-yl)-2-chloropyrrolo[2,3-d]pyrimidin-7-yl]-5-(1-methyl-5,6-dihydro-2H-pyridin-3-yl)cyclopentane-1,2-diol]
